Measurements reported in US20230151034A1 (COCRYSTAL PHARMA, INC., priority 2020, published 2023).
Read-outs that look alike come from different tables or passages of the source.

Experiments:
[1] = target: Norwalk GGI.1 Norovirus protease (Norovirus, UniProt Q83883); experiment: Noro-Norwalk FRET protease assay (Norwalk GGI.1); format: biochemical, Norwalk virus; settings: FRET protease assay, read-out: Norwalk GGI.1 IC50
Procedure: (§1) Viral protease assays: The antiviral activities of inhibitors were determined by FRET (Fluorescence Resonance Energy Transfer) assay. Purified viral protease was incubated with the protease substrate peptide (Edans-DFHLQ/GP-Dabcyl) and inhibitor, and IC50 values were subsequently determined by the fluorescence signals.
The Noro-Norwalk FRET protease assay was performed in 50 mM HEPES-Na pH 8, 50 mM NaCl, 0.4 mM EDTA, 4% glycerol, and 6 mM DTT. A self-quenching peptide substrate [5-FAM]-[…]-[TAMRA] was custom synthesized by Anaspec. Compounds were diluted in 3-fold serial dilutions to final concentrations of 200 μM to 10.2 nM. Noro protease was added to a final concentration of 1-7 μM, depending on the enzyme activity level, and the peptide substrate was added to a final concentration of 10 μM. The assay was incubated 90 minutes at 37° C. and read in a Perkin Elmer Envision with excitation at 473 nm and emission measurement at 519 nm.

SARS2 protease = SARS2 protease (Severe acute respiratory syndrome coronavirus 2, UniProt P0DTD1); experiment: SARS-CoV-2 protease inhibition assay (SARS2 FRET protease assay); format: biochemical; settings: Table E; SARS-CoV-2 protease inhibition; read-out: IC50
Procedure: as §1
The SARS2 FRET protease assay was performed in 20 mM HEPES-Na pH 7, 120 mM NaCl, 0.4 mM EDTA, 0.01% Triton, 5% glycerol, and 4 mM DTT. A self-quenching peptide substrate 5-FAM-TSA VLQ SGF RKK (5TAMRA)-NH2 was custom synthesized by Anaspec. Compounds were diluted in 3-fold serial dilutions to final concentrations of 20 μM to 1.0 nM. SARS2 protease was added to a final concentration of 25 nM, depending on the enzyme activity level, and the peptide substrate was added to a final concentration of 1.3 μM. The assay was incubated 30 minutes at 30° C. and read in a Perkin Elmer Envision with excitation at 473 nm and emission measurement at 519 nm.

[2] = target: HuNV GGII.4 Norovirus protease (Norovirus GII.4 (human norovirus genogroup II genotype 4), UniProt P54634); experiment: Norovirus protease FRET assay (HuNV GGII.4); format: biochemical; settings: FRET protease assay, read-out: HuNV GGII.4 IC50
HuNV GGII.4 Norovirus protease, sequence (P54634 1009-1189): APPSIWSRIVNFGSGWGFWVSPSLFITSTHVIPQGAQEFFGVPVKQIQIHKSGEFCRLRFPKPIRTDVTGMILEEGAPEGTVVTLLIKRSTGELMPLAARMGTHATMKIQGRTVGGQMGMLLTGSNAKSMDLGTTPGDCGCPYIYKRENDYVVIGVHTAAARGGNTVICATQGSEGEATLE

Norwalk GGI.1 Norovirus protease, sequence (Q83883 1101-1281): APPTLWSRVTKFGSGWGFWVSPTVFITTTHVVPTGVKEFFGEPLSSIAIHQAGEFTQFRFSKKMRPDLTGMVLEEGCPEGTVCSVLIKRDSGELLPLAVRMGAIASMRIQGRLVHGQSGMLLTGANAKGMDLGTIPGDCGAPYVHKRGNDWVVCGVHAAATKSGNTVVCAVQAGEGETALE

| SMILES | IC50 ([1]; Table C) [µM] | IC50 (SARS2 protease) [µM] | IC50 ([2]; Table C) [µM] | IC50 ([1]; Table D) [µM] | IC50 ([2]; Table D) [µM] |
| --- | --- | --- | --- | --- | --- |
| CCN(CCc1ccccc1)C(=O)CC[C@@H](C=O)NC(=O)[C@H](CC1CCCCC1)NC(=O)OCc1cccc(Cl)c1 (stereo in doubt) [Compound A56, 3-Chlorobenzyl ((S)-3-cyclohexyl-1-(((S)-5-(ethyl(phenethyl)amino)-1,5-dioxopentan-2-yl)amino)-1-oxopropan-2-yl)carbamate] | 9.3 | > 200 | 106 | – | – |
| CN(CCc1ccc(Cl)cc1)C(=O)CC[C@@H](C=O)NC(=O)[C@H](CC1CCCCC1)NC(=O)OCc1cccc(Cl)c1 (stereo in doubt) [Compound A48, 3-Chlorobenzyl ((S)-1-(((S)-5-((4-chlorophenethyl)(methyl)amino)-1,5-dioxopentan-2-yl)amino)-3-cyclohexyl-1-oxopropan-2-yl)carbamate] | 8.7 | 31 | 63 | – | – |
| O=C[C@H](CCC(=O)N1CCc2ccccc2CC1)NC(=O)[C@H](CC1CCCCC1)NC(=O)OCc1cccc(Cl)c1 (stereo in doubt) [Compound A118, 3-Chlorobenzyl ((S)-3-cyclohexyl-1-(((S)-1,5-dioxo-5-(1,2,4,5-tetrahydro-3H-benzo[d]azepin-3-yl)pentan-2-yl)amino)-1-oxopropan-2-yl)carbamate] | 6.6 | – | 74.2 | – | – |
| CCOP(=O)(OCC)C(O)[C@H](CCC(=O)N(C)CCc1ccc(Cl)cc1)NC(=O)C(CC1CCCCC1)NC(=O)OCc1cccc(Cl)c1 (stereo in doubt) [Compound A40, 3-Chlorobenzyl ((2S)-1-(((2S)-5-((4-chlorophenethyl)(methyl)amino)-1-(diethoxyphosphoryl)-1-hydroxy-5-oxopentan-2-yl)amino)-3-cyclohexyl-1-oxopropan-2-yl)carbamate] | 117 | > 200 | 199 | – | – |
| CCOC(=O)NCCN(C)C(=O)CC[C@@H](C=O)NC(=O)[C@H](CC1CCCCC1)NC(=O)OCc1cccc(Cl)c1 (stereo in doubt) [Compound A44, Ethyl ((5S,8S)-1-(3-chlorophenyl)-5-(cyclohexylmethyl)-8-formyl-12-methyl-3,6,11-trioxo-2-oxa-4,7,12-triazatetradecan-14-yl)carbamate] | 10.7 | > 200 | 28.6 | – | – |
| CCOCCOCCN(C)C(=O)CC[C@@H](C=O)NC(=O)[C@H](CC1CCCCC1)NC(=O)OCc1cccc(Cl)c1 [Compound A25, 3-Chlorobenzyl ((13S,16S)-17-cyclohexyl-13-formyl-9-methyl-10,15-dioxo-3,6-dioxa-9,14-diazaheptadecan-16-yl)carbamate] | 17.2 | > 200 | 39.4 | – | – |
| CCOP(=O)(OCC)C(O)[C@H](CCC(=O)N(C)CCNS(=O)(=O)CC)NC(=O)[C@H](CC1CCCCC1)NC(=O)OCc1cccc(Cl)c1 (some centres unmarked) [Compound A22] | 143 | 2.3 | > 200 | – | – |
| O=C[C@H](CCC(=O)N1CCCC(c2ccccc2)C1)NC(=O)[C@H](CC1CCCCC1)NC(=O)OCc1cccc(Cl)c1 (stereo in doubt) [Compound A53, 3-Chlorobenzyl ((2S)-3-cyclohexyl-1-(((2S)-1,5-dioxo-5-(3-phenylpiperidin-1-yl)pentan-2-yl)amino)-1-oxopropan-2-yl)carbamate] | 6.7 | 16.7 | 82.5 | – | – |
| CCOP(=O)(OCC)C(O)[C@@H]1CC(C(=O)NC)C/C=C/CCC(Cc2ccccc2)OC(=O)N[C@@H](CC(C)C)C(=O)N1 (stereo partly drawn) [Compound B27, Diethyl (((4S,7S,E)-15-benzyl-4-isobutyl-9-(methylcarbamoyl)-2,5-dioxo-1-oxa-3,6-diazacyclopentadec-11-en-7-yl)(hydroxy)methyl)phosphonate] | – | > 200 | – | 57.9 | 57.9 |
| CN1C(=O)CCC(NC(=O)[C@H](CC2CCCCC2)NC(=O)OCc2cccc(Cl)c2)C1O (stereo partly drawn) [Compound A2, 3-chlorobenzyl ((2S)-3-cyclohexyl-1-((2-hydroxy-1-methyl-6-oxopiperidin-3-yl)amino)-1-oxopropan-2-yl)carbamate] | 169 | > 200 | 127 | – | – |
| CCOCCN(C)C(=O)CC[C@@H](C=O)NC(=O)[C@H](CC1CCCCC1)NC(=O)OCc1cccc(Cl)c1 [Compound A10, 3-chlorobenzyl ((S)-3-cyclohexyl-1-(((S)-5-((2-ethoxyethyl)(methyl)amino)-1,5-dioxopentan-2-yl)amino)-1-oxopropan-2-yl)carbamate] | 3.6 | 0.98 | 16.9 | – | – |
| O=C[C@H](CCC(=O)N1CCCCc2ccccc21)NC(=O)[C@H](CC1CCCCC1)NC(=O)OCc1cccc(Cl)c1 [Compound A107, 3-Chlorobenzyl ((S)-3-cyclohexyl-1-(((S)-1,5-dioxo-5-(2,3,4,5-tetrahydro-1H-benzo[b]azepin-1-yl)pentan-2-yl)amino)-1-oxopropan-2-yl)carbamate] | 39.6 | – | 200 | – | – |
| CN(CCc1ccccc1)C(=O)CC[C@H](NC(=O)[C@H](CC1CCCCC1)NC(=O)OCc1cccc(Cl)c1)C(O)S(=O)(=O)O (stereo in doubt) [Compound A114, Sodium (2S)-2-((S)-2-((((3-chlorobenzyl)oxy)carbonyl)amino)-3-cyclohexylpropanamido)-1-hydroxy-5-(methyl (phenethyl)amino)-5-oxopentane-1-sulfonate] | 5.2 | – | 12.1 | – | – |
| O=C[C@H](CCC(=O)N1CCOCc2ccccc21)NC(=O)[C@H](CC1CCCCC1)NC(=O)OCc1cccc(Cl)c1 [Compound A108, 3-Chlorobenzyl ((S)-3-cyclohexyl-1-(((S)-5-(2,3-dihydrobenzo[e][1,4]oxazepin-1(5H)-yl)-1,5-dioxopentan-2-yl)amino)-1-oxopropan-2-yl)carbamate] | 8 | – | 13.4 | – | – |
| O=C[C@H](CCC(=O)N1CCOc2ccccc2C1)NC(=O)[C@H](CC1CCCCC1)NC(=O)OCc1cccc(Cl)c1 [Compound A57, 3-Chlorobenzyl ((S)-3-cyclohexyl-1-(((S)-5-(2,3-dihydrobenzo[f][1,4]oxazepin-4(5H)-yl)-1,5-dioxopentan-2-yl)amino)-1-oxopropan-2-yl)carbamate] | 2.3 | – | 2.6 | – | – |
| CN(CCc1ccncc1)C(=O)CC[C@@H](C=O)NC(=O)[C@H](CC1CCCCC1)NC(=O)OCc1cccc(Cl)c1 [Compound A68, 3-Chlorobenzyl ((S)-3-cyclohexyl-1-(((S)-5-(methyl (2-(pyridin-4-yl)ethyl)amino)-1,5-dioxopentan-2-yl)amino)-1-oxopropan-2-yl) carbamate] | 4.6 | – | 16.7 | – | – |
| CCOP(=O)(OCC)C(O)[C@@H]1CC(C(=O)N(C)C)CCCCCC(Cc2ccccc2)OC(=O)N[C@@H](CC(C)C)C(=O)N1 (stereo partly drawn) [Compound B45, Diethyl (((4S,7S)-15-benzyl-9-(dimethylcarbamoyl)-4-isobutyl-2,5-dioxo-1-oxa-3,6-diazacyclopentadecan-7-yl)(hydroxy)methyl)phosphonate] | – | > 200 | – | – | – |
| CCOC(=O)NCCN(C)C(=O)CC[C@H](NC(=O)[C@H](CC1CCCCC1)NC(=O)OCc1cccc(Cl)c1)C(=O)N(C)OC (stereo in doubt) [Compound A32, 3-Chlorobenzyl ((12S,15S)-16-cyclohexyl-12-(methoxy(methyl)carbamoyl)-8-methyl-4,9,14-trioxo-3-oxa-5,8,13-triazahexadecan-15-yl)carbamate] | – | > 200 | – | – | – |
| CCCCCCCC1CCCCCC(C(=O)N(C)C)CC(C=O)NC(=O)[C@H](CC(C)C)NC1=O (stereo in doubt) [Compound B18, (2S,5S)-5-formyl-13-heptyl-2-isobutyl-N,N-dimethyl-3,14-dioxo-1,4-diazacyclotetradecane-7-carboxamide] | – | > 200 | – | – | – |
| CCNC(=O)OCCN(C)C(=O)CC[C@H](NC(=O)[C@H](CC1CCCCC1)NC(=O)OCc1cccc(Cl)c1)C(O)P(=O)(OCC)OCC (stereo partly drawn) [Compound A28, 3-Chlorobenzyl ((12S,15S)-16-cyclohexyl-12-((diethoxyphosphoryl)(hydroxy)methyl)-8-methyl-4,9,14-trioxo-5-oxa-3,8,13-triazahexadecan-15-yl)carbamate] | – | > 200 | – | – | – |
| CON(C)C(=O)[C@H](CCC(=O)N(C)C)NC(=O)[C@H](CC1CCCCC1)NC(=O)OCc1cccc(Cl)c1 [Compound A3, 3-Chlorobenzyl ((S)-3-cyclohexyl-1-(((S)-5-(dimethylamino)-1-(methoxy (methyl)amino)-1,5-dioxopentan-2-yl)amino)-1-oxopropan-2-yl)carbamate] | – | > 200 | – | – | – |
